# From article PMC12254823 (Acta Pharmaceutica Sinica. B, 2025)
# Where “and” joins values, the source holds several entries; their conditions need not be identical. Identical values can stand only once.
# Tests used:
# [1] = molecular target: H1 PA-PB1 heterodimeric complex (Influenza A virus, UniProt P15659); assay type: biochemical
# PA-C K643A = PA-C K643A (Influenza A virus, UniProt P15659, K643A); assay type: binding, influenza A virus (H1)
structure (smiles),measurement,setting,value
"COc1ccc(NC(=S)NCc2cccc3cn[nH]c23)cc1OC [Compound 24, 1-[(1H-Indazol-7-yl)methyl]-3-(3,4-dimethoxyphenyl)thiourea]",PA-PB1 complex co-immunoprecipitated compared to DMSO control,[1],53.5% ± 7.9% and 53.5%
same,Melting temperature (Tm),PA-C K643A,50.2 ± 1.9 °C
